Patent publication US10457663B2, “Pyrazol-pyridine derivatives” (Hoffmann-La Roche Inc., priority 2016, dated 2019)

Experiments:
human EAAT3 = target: T1, human EAAT3 (Homo sapiens, UniProt P43005); test: FLIPR Membrane Potential (FMP) assay; format: cell-based; conditions: HEK-293 cells stably expressing human EAAT3; L-glutamate as agonist at EC80; antagonist applied 15 min before; Kb by Cheng-Prusoff from IC50
T1 construct: expressed in transfected cells; host or cells: HEK-293
T1 sequence (P43005 1-524): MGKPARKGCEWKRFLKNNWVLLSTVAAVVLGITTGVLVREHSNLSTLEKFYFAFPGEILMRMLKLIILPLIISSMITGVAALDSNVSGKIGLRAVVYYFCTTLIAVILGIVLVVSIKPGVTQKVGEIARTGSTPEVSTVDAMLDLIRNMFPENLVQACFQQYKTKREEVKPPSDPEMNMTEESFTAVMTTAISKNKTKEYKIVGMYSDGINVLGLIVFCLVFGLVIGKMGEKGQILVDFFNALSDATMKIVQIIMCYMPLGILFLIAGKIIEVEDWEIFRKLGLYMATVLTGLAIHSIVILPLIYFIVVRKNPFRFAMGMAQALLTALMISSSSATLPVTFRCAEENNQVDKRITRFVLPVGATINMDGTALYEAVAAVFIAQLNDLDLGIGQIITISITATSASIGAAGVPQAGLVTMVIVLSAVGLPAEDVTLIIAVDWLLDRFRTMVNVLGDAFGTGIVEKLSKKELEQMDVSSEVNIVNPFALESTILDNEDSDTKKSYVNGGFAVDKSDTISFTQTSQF
Experimental: The FLIPR Membrane Potential (FMP) assay
HEK-293 cells stably expressing human EAAT3 were seeded at 55 000 cells/well in growth medium (DMEM glutamate free (Invitrogen 11960-044), 1% Pen Strep (10 ml/l GIBCO BRL N^o 15140-023), 10% FCS non dialysed heat inactivated, 5 mg/l puromycin) in poly-D-lysine treated 96-well black microtiter plates with clear-bottom. After 24 h, the growth medium was removed and 100 μl/well of Krebs buffer (140 mM NaCl, 4.7 mM KCl, 2.5 mM CaCl2), 1.2 mM MgCl2, 11 mM HEPES, 10 mM D-glucose, pH=7.4) added. The cells were then loaded by adding 100 μl/well FMP assay dye (FLIPR Membrane Potential assay reagent, Molecular Devices). The 96-well plates were then incubated at 37° C. for 1 h. The depolarization of the cells will cause more dye to enter in the cells, where it will bind to intracellular proteins and lipids and cause an increase in the fluorescence signal. Antagonist potency at human EAAT3 was determined by using L-glutamate as agonist at a concentration which gives 80% of the maximum response. The antagonists were applied 15 min before the application of the agonist L-glutamate. The assays were performed at room temperature and measurements done by using a Fluorometric Imaging Plate Reader (FLIPR, Molecular Devices) and filter #2. Responses were measured as peak increase in fluorescence minus basal (i.e. fluorescence without addition of L-glutamate). Kb was determined using the Cheng-Prusoff equation Kb=IC50/[1+(A/EC50)], where IC50 is the concentration of the antagonist producing 50% inhibition, A is the concentration of the agonist against which the IC50 is being determined (at EC80) and EC50 is the concentration of the agonist producing 50% […].

SMILES | Kb (human EAAT3) [nM] | melting point [°C]
CCn1nccc1-c1cc(C(=O)NC(C)(C)C)cc(-c2ccc(F)cc2)n1 [Example 11, N-tert-Butyl-2-(2-ethylpyrazol-3-yl)-6-(4-fluorophenyl)-pyridine-4-carboxamide] | 360 | 170
CC(C)(C)NC(=O)c1cc(-c2ccc(F)cc2)nc(-c2ccnn2CC2CC2)c1 [Example 12, N-tert-Butyl-2-[2-(cyclopropylmethyl)-pyrazol-3-yl]-6-(4-fluorophenyl)-pyridine-4-carboxamide] | 310 | 203
CC(C)(C)n1nccc1-c1cc(C(=O)NC(C)(C)C(F)(F)F)cc(-c2ccc(F)cc2)n1 [Example 13, 2-(2-tert-Butyl-pyrazol-3-yl)-6-(4-fluorophenyl)-N-(1,1,1-trifluoro-2-methyl-propan-2-yl)-pyridine-4-carboxamide] | 88 | 178
CC(C)(C#N)NC(=O)c1cc(-c2ccc(F)cc2)nc(-c2ccnn2C(C)(C)C)c1 [Example 14, 2-(2-tert-Butylpyrazol-3-yl)-N-(2-cyano-propan-2-yl)-6-(4-fluoro-phenyl)-pyridine-4-carboxamide] | 71 | 213
CC(C)(NC(=O)c1cc(-c2ccc(F)cc2)nc(-c2ccnn2C(C)(C)C)c1)C1CC1 [Example 15, 2-(2-tert-Butyl-pyrazol-3-yl)-N-(2-cyclopropyl-propan-2-yl)-6-(4-fluorophenyl)-pyridine-4-carboxamide] | 135 | 169
CC(C)(CO)NC(=O)c1cc(-c2ccc(F)cc2)nc(-c2ccnn2C(C)(C)C)c1 [Example 16, 2-(2-tert-Butyl-pyrazol-3-yl)-6-(4-fluorophenyl)-N-(1-hydroxy-2-methyl-propan-2-yl)-pyridine-4-carboxamide] | 80 | 142
CC(C)(C)NC(=O)c1cc(-c2ccc(F)c(F)c2)nc(-c2ccnn2C(C)(C)C)c1 [Example 19, N-tert-Butyl-2-(2-tert-butyl-pyrazol-3-yl)-6-(3,4-difluoro-phenyl)-pyridine-4-carboxamide] | 50 | 216
CC(C)c1ccc(-c2cc(C(=O)NC(C)(C)C)cc(-c3ccnn3C(C)(C)C)n2)cc1 [Example 20, N-tert-Butyl-2-(2-tert-butyl-pyrazol-3-yl)-6-(4-propan-2-yl-phenyl)-pyridine-4-carboxamide] | 100 | 202
Cc1ccc(-c2cc(C(=O)NC(C)(C)C)cc(-c3ccnn3C(C)(C)C)n2)cc1 [Example 22, N-tert-Butyl-2-(2-tert-butyl-pyrazol-3-yl)-6-(4-methyl-phenyl)-pyridine-4-carboxamide] | 54 | 182
CC(C)(C)NC(=O)c1cc(-c2ccc(Cl)c(F)c2)nc(-c2ccnn2C(C)(C)C)c1 [Example 24, N-tert-Butyl-2-(2-tert-butyl-pyrazol-3-yl)-6-(4-chloro-3-fluoro-phenyl)-pyridine-4-carboxamide] | 110 | 208
Cc1ccc(-c2cc(C(=O)NC(C)(C)C)cc(-c3ccnn3C(C)(C)C)n2)cc1F [Example 26, N-tert-Butyl-2-(2-tert-butyl-pyrazol-3-yl)-6-(3-fluoro-4-methyl-phenyl)-pyridine-4-carboxamide] | 89 | 207
CC(C)(C)NC(=O)c1cc(-c2ccccc2)nc(-c2ccnn2C(C)(C)C)c1 [Example 27, N-tert-Butyl-2-(2-tert-butyl-pyrazol-3-yl)-6-phenyl-pyridine-4-carboxamide] | 94 | 209
CC(C)n1nccc1-c1cc(C(=O)NC(C)(C)C)cc(-c2ccccc2)n1 [Example 28, N-tert-Butyl-2-phenyl-6-(2-propan-2-yl-pyrazol-3-yl)-pyridine-4-carboxamide] | 310 | 197
